Patent US20220024891A1 (The Board of Regents of the University of Texas System, priority 2018, published 2022)
Like-named read-outs stand apart in the source and are kept apart here.

Key:
[1] = test system: DLD-1 cells; assay: Sensitivity of DLD-1 versus HCT-116 cells to EBP inhibitors; assay type: cell-based, human; details: varying doses
[2] = test system: colorectal tumors in CPC;Apc mice; assay: Anti-tumor effects in CPC;Apc mice; assay type: in vivo, mouse; details: 90 days' treatment
Procedure: These mice carry a CDX2P-NLS Cre recombinase transgene and a loxP-targeted Apc allele that deletes exon 14, leading to a frame shift at codon 580 and a truncated APC protein. […] Weights were measured every 15 days over the treatment period. These studies were performed according to the guidelines of the UT Southwestern Institutional Animal Care and Use Committee.

[3] = test system: DLD1 tumors; assay: Xenograft mouse model, DLD1 tumors; assay type: in vivo; details: nude mice, 40 mg/kg intraperitoneally twice daily for 18 days
[4] = Mouse PK analysis, plasma; assay type: in vivo; details: for Cmax: female, CD-1, mouse, plasma, dosed intravenously (i.v.)
[5] = Mouse PK analysis, large intestine; assay type: in vivo; details: for AUC(0-t): female, CD-1, mouse, large intestine, read-out: Large Intestinal pK AUClast (converted)

For `CC(C(O)c1ccc(O)cc1)N1CCC(Cc2ccccc2)CC1` (stereo not shown) [Ifenprodil, ifenprodil], the “selective sensitivity of DLD-1 versus HCT-116 cells” value [1] was “selectively sensitive”.

In the case of `COc1ccc2c(c1)CCC(c1ccccc1)=C2c1ccc(OCCN2CCCC2)cc1` [Nafoxidine, nafoxidine], the “selective sensitivity of DLD-1 versus HCT-116 cells” value [1] is reported as “selectively sensitive”.

For `COc1ccc(S(=O)(=O)N2CCC(N3CCC(C)CC3)CC2)cc1` [TASIN-1], the “body weight over treatment” value [2] was “gained weight to a level similar to WT mice” and the “toxicity and body weights” value [3] was “no overt toxicity and no statistically significant differences were observed in the body weights”.

With `COc1ccc(S(=O)(=O)N2CCC(N3CCC(C)CC3)CC2)cc1` [compound 6, 1′-((4-methoxyphenyl)sulfonyl)-4-methyl-1,4′-bipiperidine] the “Plasma pK AUClast (ng · min/mL)” value ([4]; ip, 10 mg/kg) was 104,103 ng · min/mL, the “Plasma pK Cmax (ng/mL)” value ([4]; ip, 10 mg/kg) was 2,390 ng/mL and the “Plasma pK Tmax (min)” value ([4]; ip, 10 mg/kg) was 10 min. For the same compound, the “Plasma pK Vz (mL)” value ([4]; ip, 10 mg/kg) was 162 mL and the AUC(0-t) ([5]; ip, 10 mg/kg) was 12300 ng·h/mL.

For `CC1CCN(C2CCN(S(=O)(=O)c3ccc(Cl)cc3)CC2)CC1` [compound 16, 1′-((4-Chlorophenyl)sulfonyl)-4-methyl-1,4′-bipiperidine], the Cmax ([4]; iv) was 191 to 742 ng/mL, the “Plasma pK AUClast (ng · min/mL)” value ([4]; iv, 10 mg/kg) was 21,581 ng · min/mL and the “Plasma pK Cmax (ng/mL)” value ([4]; iv, 10 mg/kg) was 191 ng/mL. For the same compound, the “Plasma pK Tmax (min)” value ([4]; iv, 10 mg/kg) was 30 min, the “Plasma pK Vz (mL)” value ([4]; iv, 10 mg/kg) was 1243 mL and the AUC(0-t) ([5]; iv, 10 mg/kg) was 4380 ng·h/mL. The “Large Intestinal pK Tmax (min)” value ([5]; iv, 10 mg/kg) was 10 min and the melting point was 152 to 155 °C.

With `CC1CCN(C2CCN(S(=O)(=O)c3ccc(OC(F)F)cc3)CC2)CC1` [compound 22, 1′-((4-(Difluoromethoxy)phenyl)sulfonyl)-4-methyl-1,4′-bipiperidine] the oral bioavailablity ([4]; 20 mg/kg) was 52%, the Cmax ([4]; iv) was 191 to 742 ng/mL and the “Plasma pK AUClast (ng · min/mL)” value ([4]; ip, 10 mg/kg) was 205,914 ng · min/mL. The “Plasma pK Cmax (ng/mL)” value ([4]; ip, 10 mg/kg) was 1,117 ng/mL, the “Plasma pK Tmax (min)” value ([4]; ip, 10 mg/kg) was 10 min and the “Plasma pK Vz (mL)” value ([4]; ip, 10 mg/kg) was 156 mL. The “Plasma pK AUClast (ng · min/mL)” value ([4]; iv, 5 mg/kg) was 197,571 ng · min/mL, the “Plasma pK Cmax (ng/mL)” value ([4]; iv, 5 mg/kg) was 742 ng/mL and the “Plasma pK Tmax (min)” value ([4]; iv, 5 mg/kg) was 10 min. The “Plasma pK Vz (mL)” value ([4]; iv, 5 mg/kg) was 135 mL, the “Plasma pK AUClast (ng · min/mL)” value ([4]; po, 20 mg/kg) was 328,296 ng · min/mL and the “Plasma pK Cmax (ng/mL)” value ([4]; po, 20 mg/kg) was 691 ng/mL. For the same compound, the “Plasma pK Vz (mL)” value ([4]; po, 20 mg/kg) was 153 mL, the AUC(0-t) ([5]; ip, 10 mg/kg) was 13200 ng·h/mL and the AUC(0-t) ([5]; iv, 5 mg/kg) was 8530 ng·h/mL. The AUC(0-t) ([5]; po, 20 mg/kg) was 14800 ng·h/mL, the “Large Intestinal pK Tmax (min)” value ([5]; po, 20 mg/kg) was 10 min and the melting point was 132 to 135 °C.

For `CC1CCN(CC2CCN(S(=O)(=O)c3ccc(-c4ccccc4F)cc3)CC2)CC1` [compound 154, 1-((2′-fluoro-[1,1′-biphenyl]-4-yl)sulfonyl)-4-((4-methylpiperidin-1-yl)methyl)piperidine], the melting point was 136 to 139 °C.

With `CC1CCN(CC2CCN(S(=O)(=O)c3ccc(-c4ccccc4)cc3)CC2)CC1` [compound 155, 1-([1,1′-biphenyl]-4-ylsulfonyl)-4-((4-methylpiperidin-1-yl)methyl)piperidine] the melting point was 148 to 151 °C.
